Experimental data reported in article PMC11561622, “Evaluating Antimalarial Proteasome Inhibitors for Efficacy in Babesia Blood Stage Cultures” (ACS Omega, 2024).

System: B. divergens
Assay: B. divergens growth in bovine erythrocyte cultures (flow cytometry parasitemia)
Assay type: cell-based, Babesia divergens
Conditions: for EC50: bovine erythrocyte cultures, 48 h, dose-response
Procedure: Blood stage cultures of B. divergens (strain 2210A G2) were maintained in erythrocytes from defibrinated bovine blood (BioTrading Benelux B.V.). Parasites were multiplied in in vitro erythrocyte cultures containing RPMI 1640 medium (Lonza, cat. no. BE12-115F) supplemented with 50 μg/mL gentamicin (Lonza), 0.25 μg/mL amphotericin B (Sigma-Aldrich), and 20% (v/v) heat-inactivated fetal calf serum (Lonza, inactivation at 56 °C for 30 min before use). Cells were cultured at 37 °C in a 5% CO2 environment. B. microti (Franca) (ATTC PRA-99) was maintained by continuous intraperitoneal passages in BALB/c female mice (Charles River Laboratories). All laboratory animals were treated in accordance with the Animal Protection Law of the Czech Republic No. 246/1992 Sb., ethics approval no. 25/2018. The study was approved by the Institute of Parasitology, Biology Centre of the Czech Academy of Sciences and the Central Committee for the Animal Welfare, Czech Republic (protocol no. 1/2015).
To evaluate the effect of inhibitors on B. divergens replication, cultures (5% hematocrit) containing 2% parasitemia were cultivated in media. Single concentration screens were first performed using 600 nM of compound and then dose–response assays (5400 to 2.34 nM) were subsequently performed for compounds of interest. Assays were performed twice in triplicate wells in a 96-well tissue culture plate format (TPP, Switzerland) and media containing inhibitors were replaced at 12 h intervals for a total of 48 h. DMSO diluted in medium (0.1%) served as a vehicle control. The parasitemia of intraerythrocytic B. divergens was determined using flow cytometry following the staining of nucleic acids as described previously.[31] Briefly, infected red blood cells were fixed in a solution of 4% paraformaldehyde and 0.025% glutaraldehyde in PBS for 30 min at room temperature (RT). […] Parasitemia was analyzed using a FACS CantoII flow cytometer and Diva software provided by BD Biosciences. The EC50 of compounds in the dose–response inhibition was determined in GraphPad Prism 10 using nonlinear regression.

`CCCCCC(=O)N[C@H](C(=O)N[C@@H](CCS(C)(=O)=O)C(=O)N[C@@H](CC(C)C)C(=O)[C@@]1(C)CO1)C(C)C` [carmaphycin B] was tested, and the “Selectivity index (B. divergens over HepG2 cells)” value (HepG2 EC50 / B. divergens EC50) was 0.21, the EC50 was 59.5 ± 12.8 nM and the EC50 (listed as CPB) was 59.5 ± 12.8 nM.
